Results from patent EP4019017A1, “COMPOSITION COMPRISING MELATONIN, PIPERINE AND VITAMIN D, CONTROLLED-RELEASE FORMULATION AND USE THEREOF FOR THE TREATMENT OF SLEEP DISORDERS” (Uriach Consumer Healthcare, S.L., priority 2020, dated 2022).
Where two headings read alike, the source gives them in different places.

Experiments:
[1] = cited from earlier work
[2] = system: Intestinal cells (Caco-2); assay: Intestinal cells - cell viability; assay type: cell-based; design: unit not given here
Source text: For this purpose, intestinal barrier model (transwell, patented model from Novara University, Italy) is used to determine the rate of passage and therefore to estimate a better pass-effect of melatonin in combination with piperine and vitamin D than melatonin alone. In this phase, vitality will also be assessed in the presence of the treatments alone and in combination with melatonin, in addition to melatonin alone. […] A time-dependent trend can be observed for all tested substances. In addition, substances other than melatonin have an efficacy that resolves within 2-4 hours of treatment.

[3] = system: Intestinal cells (Caco-2); assay: Intestinal absorption rate, intestinal barrier model (transwell), fluorescent tracer; assay type: in vitro ADME
Source text: For this purpose, intestinal barrier model (transwell, patented model from Novara University, Italy) is used to determine the rate of passage and therefore to estimate a better pass-effect of melatonin in combination with piperine and vitamin D than melatonin alone. In this phase, vitality will also be assessed in the presence of the treatments alone and in combination with melatonin, in addition to melatonin alone. […] 3.1.b. Intestinal absorption: to determine speed based on the fluorescent tracer, the percentage velocity calculated with respect to the control.

[4] = Time 1 h, Melatonin 1mM, Piperine 5µM, Vitamin D3 1nM, Vitamin B6 500µM

## O=C(/C=C/C=C/c1ccc2c(c1)OCO2)N1CCCCC1 [Piperine, (2E,4E)-5-(2H-1,3-Benzodioxol-5-yl)-1-(piperidin-1-yl)penta-2,4-dien-1-one]
[1]; in alcohol
  solubility: soluble
[1]; in water
  solubility: insoluble
[2]; [4]
  Cell viability, Average: 6.37
[2]; Time 2 h
  Cell viability, Average: 30.25
[2]; Time 3 h
  Cell viability, Average: 21.625
[2]; Time 4 h
  Cell viability, Average: 14.125
[2]; Time 5 h
  Cell viability, Average: 12.32
[2]; Time 6 h
  Cell viability, Average: 6.74

## Cc1ncc(CO)c(CO)c1O.Cl [Vitamin B6, Pyridoxine HCI]
[2]; [4]
  Cell viability, Average: 11.985
[2]; Time 2 h
  Cell viability, Average: 5.215
[2]; Time 3 h
  Cell viability, Average: 5.965
[2]; Time 4 h
  Cell viability, Average: 9.105
[2]; Time 5 h
  Cell viability, Average: 3.565
[2]; Time 6 h
  Cell viability, Average: 4.8

## C=C1CC[C@H](O)C/C1=C/C=C1\CCC[C@]2(C)[C@@H]([C@H](C)CCCC(C)C)CC[C@@H]12 [Vitamin D3]
[3]; Time 2 h
  Speed (percentage velocity calculated with respect to the control): 15.00%
[3]; Time 3 h
  Speed (percentage velocity calculated with respect to the control): 19.00%
[3]; Time 4 h
  Speed (percentage velocity calculated with respect to the control): 17.00%
[3]; Time 5 h
  Speed (percentage velocity calculated with respect to the control): 13.00%
[3]; Time 6 h
  Speed (percentage velocity calculated with respect to the control): 10.00%
[3]; time 1 h
  Speed (percentage velocity calculated with respect to the control): 10.00%
[3]; time point printed as 30
  Speed (percentage velocity calculated with respect to the control): 8.00%
[2]; [4]
  Cell viability, Average: 6.91
[2]; Time 2 h
  Cell viability, Average: 14.185
[2]; Time 3 h
  Cell viability, Average: 18.32
[2]; Time 4 h
  Cell viability, Average: 16.325
[2]; Time 5 h
  Cell viability, Average: 9.315
[2]; Time 6 h
  Cell viability, Average: 0.78

## COc1ccc2[nH]cc(CCNC(C)=O)c2c1 [Melatonin, N-[2-(5-Methoxy-1H-indol-3-yl)ethyl]acetamide]
[2]; [4]
  Cell viability, Average: 13.375
[2]; Time 2 h
  Cell viability, Average: 10.905
[2]; Time 3 h
  Cell viability, Average: 7.57
[2]; Time 4 h
  Cell viability, Average: 6.965
[2]; Time 5 h
  Cell viability, Average: 2.57
[2]; Time 6 h
  Cell viability, Average: 1.005
